According to patent publication US20240293361A1, “Use of Statins to Treat or Prevent Drug-Induced Hearing Loss” (The United States of America, as represented by the …, priority 2020, published 2024):

Assays:
[1] = tested on: cisplatin-induced hearing loss in patients with head and neck cancer; conditions: in vivo
[2] = tested on: cisplatin-induced hearing loss in patients with head and neck cancer; conditions: in vivo; remark: listed apart in the source
Description: The primary outcome measure was the difference in incidence of a change in hearing between the baseline hearing test and the post-treatment hearing test, per ear, as defined by established ototoxicity grading scales. These scales report subjects who transition from normal hearing to hearing loss as well as those who transition from some hearing loss to more hearing loss. The criteria of two different grading scales was applied to the dataset (Table 4). The NCI CTCAEv5.0(34) classifies adverse changes in hearing based on auditory threshold shifts across a 1-8 KHz frequency range. TUNE ototoxicity grading criteria (Theunissen et al., 2014), which incorporate extended high frequency (EHF) data was also applied (see Table 5, FIG. 5).
Changes in hearing were primarily defined using CTCAEv5.0 criteria (Theunissen et al., 2014). However, cisplatin-induced ototoxicity is characterized initially as a high frequency (above 8 kHz) hearing loss that can spread to include lower frequencies (Brock et al., 1991). Therefore, the TUNE grading scale (Theunissen et al., 2014) was applied, which reports incidence and severity of hearing loss based on shifts in auditory thresholds across two frequency ranges: 1-4 kHz and 8-12.5 kHz (Table 4). The higher-frequency range of the TUNE scale was modified to include 6, 8 and 12.5 kHz due to insufficient data at 10 kHz in the dataset. Because many of the subjects had some hearing loss at baseline, the TUNE criteria was further modified so that Grades 3 and 4 utilized threshold shift data instead of absolute thresholds. A TUNE Grade 3 was redefined for this study as a ≥35 dB PTA threshold shift from the baseline to the post-treatment audiogram, and similarly Grade 4 was redefined as a ≥50 dB PTA threshold shift.
Changes in hearing, defined by TUNE criteria, were analyzed using categorical incidence (per ear) data. The incidence and severity distribution of a clinically meaningful hearing change, per ear, relative to statin use was analyzed using chi-square analyses (SAS PROC FREQ procedure). […] A logistic regression analysis (SAS PROC LOGISTIC procedure) with calculation of odds ratios and 95% confidence intervals was performed to identify associations between TUNE-defined changes in hearing and statin use after adjustment for significant covariates.

[3] = tested on: cisplatin-induced hearing loss in patients with head and neck cancer; assay: Clinical hearing status (PTA of 1, 2 and 4 kHz) at follow-up after cisplatin therapy; type: in vivo, human; conditions: post-cisplatin therapy
[4] = tested on: cytochrome P(450) enzymes; conditions: Schachter et al., 2005; cited from earlier work
[5] = compared with lipophilic agents; Schachter et al., 2005; cited from earlier work
[6] = tested on: low-density lipoprotein cholesterol; conditions: clinical studies, comparison among statins; cited from earlier work
[7] = Schachter et al., 2005; cited from earlier work

Row | Compound | high-frequency threshold shift after cisplatin therapy [1] [dB] | individuals with clinically meaningful hearing loss after cisplatin therapy, TUNE criteria [2] | hearing status at follow-up: Mild (PTA >20, <40), number of ears [3] [No. Ears] | hearing status at follow-up: Mild (PTA >20, <40), percent of ears [3] | hearing status at follow-up: Moderate (PTA ≥40, ≤70), number of ears [3] [No. Ears] | hearing status at follow-up: Moderate (PTA ≥40, ≤70), percent of ears [3] | hearing status at follow-up: Normal (PTA ≤20), number of ears [3] [No. Ears] | hearing status at follow-up: Normal (PTA ≤20), percent of ears [3] | hearing status at follow-up: Profound (PTA ≥95), number of ears [3] [No. Ears] | hearing status at follow-up: Severe (PTA >70, <95), number of ears [3] [No. Ears] | metabolism by the cytochrome P(450) system [4] | hepatoselectivity [5] | effectiveness for reducing low-density lipoprotein cholesterol [6] | lipophilicity [7]
1 | N.N.[Cl][Pt][Cl] [cisplatin] | 13.7 | up to 53% |  |  |  |  |  |  |  |  |  |  |  | 
2 | CC(C)c1nc(N(C)S(C)(=O)=O)nc(-c2ccc(F)cc2)c1/C=C/[C@@H](O)C[C@@H](O)CC(=O)O [rosuvastatin] |  |  | 14 | (63.64) % | 6 | (27.27) % | 2 | (9.09) % | 0 | 0 | not significantly metabolized | greater hepatoselectivity | most effective | relatively hydrophilic
